Data taken from patent US7579315B2, “Casein peptides for alleviating or preventing aging of skin” (Pepsyn Ltd., priority 2000, dated 2009).

Test system: Human keratinocytes (HatKat)
Assay: Growth of keratinocytes, cell count in Coulter counter after three days
Type: cell-based
Details: 10 ng/ml EGF versus medium with 0.5% FCS
Procedure: Human keratinocytes (HatKat) were grown in keratinocyte growth medium (TCS Cellworks Ltd.) until 20% confluence. Then, in the same medium, the keratinocytes were grown for three days with 0.5% foetal calf serum (FCS), at which point the cells were counted in a Coulter® counter. The cell numbers obtained are set out in Table 3 below.

Substance: epidermal growth factor (NSDSECPLSHDGYCLHDGVCMYIEALDKYACNCVVGYIGERCQYRDLKWWELR; UniProt P01133 971-1023, looked up) [EGF, epidermal growth factor, comparison growth factor at 10 ng/ml]
- increase in the growth of keratinocytes (in words): relatively modest increase
